Results published in patent US9732119B2, “Immunomodulators” (BRISTOL-MYERS SQUIBB COMPANY, priority 2014, dated 2017).
Positions of bridges follow the written chain, without caps; N, C: chain ends. Non-standard residues stand in square brackets, D forms with d. Residues, ends and D or L forms follow the SMILES beside them. Trp(1-CH2COOH) = N[C@@H](Cc1cn(CC(=O)O)c2ccccc12)C(=O)O; Phe(4-Cl) = N[C@@H](Cc1ccc(Cl)cc1)C(=O)O; Phe(4-Me) = Cc1ccc(C[C@H](N)C(=O)O)cc1; Hyp = O=C(O)[C@@H]1C[C@@H](O)CN1; Aad = N[C@@H](CCCC(=O)O)C(=O)O; NMeNle = CCCC[C@H](NC)C(=O)O; dOrn = NCCC[C@@H](N)C(=O)O; Pip = O=C(O)[C@@H]1CCCCN1; NMeA = CN[C@@H](C)C(=O)O; Orn = NCCC[C@H](N)C(=O)O; Dab = NCC[C@H](N)C(=O)O; Dap = NC[C@H](N)C(=O)O; Ava = NCCCCC(=O)O

Target: T1, PD-1-Ig binding to PD-L1-TVMV-His (PD-L1-His) (Homo sapiens, UniProt Q9NZQ7)
T1 construct: hPDL1(19-239)-TVMV-His; made in house; host or cells: HEK293T cells
T1 sequence (Q9NZQ7 with tags, fused parts or gaps): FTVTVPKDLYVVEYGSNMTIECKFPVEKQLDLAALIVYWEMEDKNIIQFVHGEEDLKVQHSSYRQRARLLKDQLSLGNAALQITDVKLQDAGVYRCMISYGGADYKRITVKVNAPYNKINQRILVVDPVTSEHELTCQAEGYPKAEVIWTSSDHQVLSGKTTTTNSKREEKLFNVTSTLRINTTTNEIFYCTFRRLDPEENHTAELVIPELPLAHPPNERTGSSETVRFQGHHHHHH
Assay: PD-1/PD-L1 Homogenous Time-Resolved Fluorescence (HTRF) binding assay
Conditions: PD-1-Ig (20 nM) / PD-L1-His (10 nM); numeric values
Source text: The ability of the macrocyclic peptides of the present disclosure to bind to PD-L1 was investigated using a PD-1/PD-L1 Homogenous Time-Resolved Fluorescence (HTRF) binding assay.
Homogenous Time-Resolved Fluorescence (HTRF) Assays of Binding of Soluble PD-1 to Soluble PD-L1. Soluble PD-1 and soluble PD-L1 refers to proteins with carboxyl-end truncations that remove the transmembrane-spanning regions and are fused to heterologous sequences, specifically the Fc portion of the human immunoglobuling G sequence (Ig) or the hexahistidine epitope tag (His). All binding studies were performed in an HTRF assay buffer consisting of dPBS supplemented with 0.1% (w/v) bovine serum albumin and 0.05% (v/v) Tween-20. For the PD-1-Ig/PD-L1-His binding assay, inhibitors were pre-incubated with PD-L1-His (10 nM final) for 15 m in 4 μl of assay buffer, followed by addition of PD-1-Ig (20 nM final) in 1 μl of assay buffer and further incubation for 15 m. PD-L1 fusion proteins from either human, cynomologous macaques, mouse, or other species were used. HTRF detection was achieved using europium crypate-labeled anti-Ig monoclonal antibody (1 nM final) and allophycocyanin (APC) labeled anti-His monoclonal antibody (20 nM final). Antibodies were diluted in HTRF detection buffer and 5 μl was dispensed on top of binding reaction. […] Additional binding assays were established between PD-1-Ig/PD-L2-His (20 and 5 nM, respectively), CD80-His/PD-L1-Ig (100 and 10 nM, respectively) and CD80-His/CTLA4-Ig (10 and 5 nM, respectively).
Recombinant Proteins. […] Human PD-L2-His (Sino Biologicals), CD80-His (Sino Biologicals), CTLA4-Ig (RnD Systems) were all obtained through commercial sources.

IC50, 15 nM:
CCCC[C@H]1C(=O)N(C)[C@@H](CCCC)C(=O)N[C@@H](CC(C)C)C(=O)N[C@H](C(=O)NCC(N)=O)CNCC(=O)N[C@@H](Cc2ccc(F)cc2)C(=O)N(C)[C@@H](C)C(=O)N[C@@H](CC(=O)O)C(=O)N2CCC[C@H]2C(=O)N[C@@H](CCC(N)=O)C(=O)N[C@@H](CC(=O)O)C(=O)N2C[C@H](O)C[C@H]2C(=O)N[C@@H](Cc2c[nH]c3ccccc23)C(=O)N[C@@H](CC(N)=O)C(=O)N[C@@H](Cc2cn(CC(=O)O)c3ccccc23)C(=O)N1C [Example 9015]

Same assay, conditions: PD-1-Ig (20 nM) / PD-L1-His (10 nM); range classes

IC50, 1 to 9.9 nM:
CCCC[C@H]1C(=O)N(C)[C@@H](CCCC)C(=O)N[C@@H](CC(C)C)C(=O)N2CCC[C@@H]2C(=O)NCC(=O)N[C@@H](Cc2ccc(O)cc2)C(=O)N(C)[C@@H](C)C(=O)N[C@@H](CC(N)=O)C(=O)N2CCC[C@H]2C(=O)N[C@@H](CN)C(=O)N[C@@H](CC(C)C)C(=O)N2C[C@H](O)C[C@H]2C(=O)N[C@@H](Cc2c[nH]c3ccccc23)C(=O)N[C@@H](CCN)C(=O)N[C@@H](Cc2c[nH]c3ccccc23)C(=O)N1C [Example 5008] (cyclo([Dab]W[NMeNle][NMeNle]L[dP]GY[NMeA]NP[Dap]L[Hyp]W))
CCCC[C@H]1C(=O)N(C)[C@@H](CCCC)C(=O)N[C@@H](CCC(=O)O)C(=O)N[C@H](C(N)=O)CNCC(=O)N[C@@H](Cc2ccc(O)cc2)C(=O)N2CCCC[C@H]2C(=O)N[C@@H](CC(N)=O)C(=O)N2CCC[C@H]2C(=O)N[C@@H](CCC(N)=O)C(=O)N[C@@H](CCC(=O)O)C(=O)N2C[C@H](O)C[C@H]2C(=O)N[C@@H](Cc2c[nH]c3ccccc23)C(=O)N[C@@H](CC(N)=O)C(=O)N[C@@H](Cc2cn(CC(=O)O)c3ccccc23)C(=O)N1C [Example 9044]
CCCC[C@H]1C(=O)N(C)[C@@H](CCCC)C(=O)N[C@@H](CC(C)C)C(=O)N[C@H](C(=O)NCC(N)=O)CNCC(=O)N[C@@H](Cc2ccc(OC)cc2)C(=O)N2CCCC[C@H]2C(=O)N[C@@H](CC(N)=O)C(=O)N2CCC[C@H]2C(=O)N[C@@H](CN)C(=O)N[C@@H](CC(C)C)C(=O)N2C[C@H](O)C[C@H]2C(=O)N[C@@H](Cc2c[nH]c3ccccc23)C(=O)N[C@@H](CCN)C(=O)N[C@@H](Cc2cn(CC(=O)O)c3ccccc23)C(=O)N1C [Example 1040]
CCCC[C@H]1C(=O)N(C)[C@@H](CCCC)C(=O)N[C@@H](CC(C)C)C(=O)N[C@H](C(=O)NCC(N)=O)CNCC(=O)N[C@@H](Cc2ccc(O)cc2)C(=O)N(C)[C@@H](C)C(=O)N[C@@H](CC(N)=O)C(=O)N2CCC[C@H]2C(=O)N[C@@H](CCC(N)=O)C(=O)N[C@@H](CC(=O)O)C(=O)N2C[C@H](O)C[C@H]2C(=O)N[C@@H](Cc2c[nH]c3ccccc23)C(=O)N[C@@H](CC(N)=O)C(=O)N[C@@H](Cc2cn(CC(=O)O)c3ccccc23)C(=O)N1C [Example 9006]
CCCC[C@H]1C(=O)N(C)[C@@H](CCCC)C(=O)N[C@@H](CC(C)C)C(=O)NCC(=O)NCC(=O)N[C@@H](Cc2ccc(O)cc2)C(=O)N(C)[C@@H](C)C(=O)N[C@@H](CC(N)=O)C(=O)N2CCC[C@H]2C(=O)N[C@@H](CN)C(=O)N[C@@H](CC(C)C)C(=O)N2C[C@H](O)C[C@H]2C(=O)N[C@@H](Cc2c[nH]c3ccccc23)C(=O)N[C@@H](CCN)C(=O)N[C@@H](Cc2cn(CC(=O)O)c3ccccc23)C(=O)N1C [Example 5002] (cyclo([Dab][Trp(1-CH2COOH)][NMeNle][NMeNle]LGGY[NMeA]NP[Dap]L[Hyp]W))
CCCC[C@H]1C(=O)N(C)[C@@H](CCCC)C(=O)N[C@@H](CC(C)C)C(=O)NCCC[C@@H](N)C(=O)N[C@@H](Cc2ccc(Cl)cc2)C(=O)N2CCCC[C@H]2C(=O)N[C@@H](CC(N)=O)C(=O)N2CCC[C@H]2C(=O)N[C@@H](CN)C(=O)N[C@@H](CCC(=O)O)C(=O)N2C[C@H](O)C[C@H]2C(=O)N[C@@H](Cc2c[nH]c3ccccc23)C(=O)N[C@@H](CCN)C(=O)N[C@@H](Cc2cn(CC(=O)O)c3ccccc23)C(=O)N1C [Example 10571] (H-[dOrn][Phe(4-Cl)][Pip]NP[Dap]E[Hyp]W[Dab][Trp(1-CH2COOH)][NMeNle][NMeNle]L; lactam 1-C)
CCCC[C@H]1C(=O)N(C)[C@@H](CCCC)C(=O)N[C@@H](CC(C)C)C(=O)NCC(=O)NCC(=O)N[C@@H](Cc2ccc(O)cc2)C(=O)N(C)[C@@H](C)C(=O)N[C@@H](CC(N)=O)C(=O)N2CCC[C@H]2C(=O)N[C@@H](CN)C(=O)N[C@@H](CC(C)C)C(=O)N2C[C@H](O)C[C@H]2C(=O)N[C@@H](Cc2c[nH]c3ccccc23)C(=O)N[C@@H](CCN)C(=O)N[C@@H](Cc2c[nH]c3ccccc23)C(=O)N1C [Example 5001] (cyclo([Dab]W[NMeNle][NMeNle]LGGY[NMeA]NP[Dap]L[Hyp]W))
CCCC[C@H]1C(=O)N(C)[C@@H](CCCC)C(=O)N[C@@H](CC(C)C)C(=O)N[C@H](C(N)=O)COCC(=O)N[C@@H](Cc2ccc(O)cc2)C(=O)N2CCCC[C@H]2C(=O)N[C@@H](CC(N)=O)C(=O)N2CCC[C@H]2C(=O)N[C@@H](CN)C(=O)N[C@@H](CC(C)C)C(=O)N2C[C@H](O)C[C@H]2C(=O)N[C@@H](Cc2c[nH]c3ccccc23)C(=O)N[C@@H](CCN)C(=O)N[C@@H](Cc2cn(CC(=O)O)c3ccccc23)C(=O)N1C [Example 10533]

IC50, 10 to 99 nM:
CCCC[C@H]1C(=O)N(C)[C@@H](CCCC)C(=O)N[C@@H](CC(C)C)C(=O)N[C@H](C(N)=O)CCCC(=O)N[C@@H](Cc2ccc(OC)cc2)C(=O)N2CCCC[C@H]2C(=O)N[C@@H](CC(N)=O)C(=O)N2CCC[C@H]2C(=O)N[C@@H](CN)C(=O)N[C@@H](CCC(=O)O)C(=O)N2C[C@H](O)C[C@H]2C(=O)N[C@@H](Cc2c[nH]c3ccccc23)C(=O)N[C@@H](CCN)C(=O)N[C@@H](Cc2cn(CC(=O)O)c3ccccc23)C(=O)N1C [Example 10522] (Y(Me)[Pip]NP[Dap]E[Hyp]W[Dab][Trp(1-CH2COOH)][NMeNle][NMeNle]L[Aad]-NH2; lactam N-14)
CCCC[C@H]1C(=O)N(C)[C@@H](CCCC)C(=O)N[C@@H](CCC(=O)O)C(=O)N[C@H](C(=O)NCC(N)=O)CNCC(=O)N[C@@H](Cc2ccc(F)cc2)C(=O)N(C)[C@@H](C)C(=O)N[C@@H](CC(N)=O)C(=O)N2CCC[C@H]2C(=O)N[C@@H](CCC(N)=O)C(=O)N[C@@H](CCC(=O)O)C(=O)N2C[C@H](O)C[C@H]2C(=O)N[C@@H](Cc2c[nH]c3ccccc23)C(=O)N[C@@H](CC(N)=O)C(=O)N[C@@H](Cc2cn(CC(=O)O)c3ccccc23)C(=O)N1C [Example 9024]
CCCC[C@H]1C(=O)N(C)[C@@H](CCCC)C(=O)N[C@@H](CC(C)C)C(=O)N[C@H](C(=O)NCC(N)=O)CNCC(=O)N[C@@H](Cc2ccc(O)cc2)C(=O)N(C)[C@@H](C)C(=O)N[C@@H](CC(N)=O)C(=O)N2CCC[C@H]2C(=O)N[C@@H](Cc2cnc[nH]2)C(=O)N[C@@H](CC(C)C)C(=O)N2CCC[C@H]2C(=O)N[C@@H](Cc2c[nH]c3ccccc23)C(=O)N[C@@H](CO)C(=O)N[C@@H](Cc2cn(CC(=O)O)c3ccccc23)C(=O)N1C [Example 10006]
CCCC[C@H]1C(=O)N(C)[C@@H](CCCC)C(=O)N[C@@H](CC(C)C)C(=O)NCCC[C@H](N)C(=O)N[C@@H](Cc2ccc(O)cc2)C(=O)N2CCCC[C@H]2C(=O)N[C@@H](CC(N)=O)C(=O)N2CCC[C@H]2C(=O)N[C@@H](CN)C(=O)N[C@@H](CC(C)C)C(=O)N2C[C@H](O)C[C@H]2C(=O)N[C@@H](Cc2c[nH]c3ccccc23)C(=O)N[C@@H](CCN)C(=O)N[C@@H](Cc2cn(CC(=O)O)c3ccccc23)C(=O)N1C [Example 10517] (H-[Orn]Y[Pip]NP[Dap]L[Hyp]W[Dab][Trp(1-CH2COOH)][NMeNle][NMeNle]L; lactam 1-C)
CCCC[C@H]1C(=O)N(C)[C@@H](CCCC)C(=O)N[C@@H](CC(C)C)C(=O)N[C@H](C(N)=O)CCCC(=O)N[C@@H](Cc2ccc(C)cc2)C(=O)N2CCCC[C@H]2C(=O)N[C@@H](CC(=O)O)C(=O)N2CCC[C@H]2C(=O)N[C@@H](CN)C(=O)N[C@@H](CC(C)C)C(=O)N2C[C@H](O)C[C@H]2C(=O)N[C@@H](Cc2c[nH]c3ccccc23)C(=O)N[C@@H](CCN)C(=O)N[C@@H](Cc2cn(CC(=O)O)c3ccccc23)C(=O)N1C [Example 10553] ([Phe(4-Me)][Pip]DP[Dap]L[Hyp]W[Dab][Trp(1-CH2COOH)][NMeNle][NMeNle]L[Aad]-NH2; lactam N-14)

IC50, 100 to 10000 nM:
CCCC[C@H]1C(=O)N(C)[C@@H](CCCC)C(=O)N[C@@H](CC(C)C)C(=O)NCCCCC(=O)N[C@@H](Cc2ccc(O)cc2)C(=O)N2CCCC[C@H]2C(=O)N[C@@H](CC(=O)O)C(=O)N2CCC[C@H]2C(=O)N[C@@H](Cc2c[nH]cn2)C(=O)N[C@@H](CCCCN)C(=O)N2C[C@H](O)C[C@H]2C(=O)N[C@@H](Cc2c[nH]c3ccccc23)C(=O)N[C@@H](CCCCN)C(=O)N[C@@H](Cc2cn(CC(=O)O)c3ccccc23)C(=O)N1C [Example 10510] (cyclo([Ava]Y[Pip]DPHK[Hyp]WK[Trp(1-CH2COOH)][NMeNle][NMeNle]L))
